Measured values from patent US10363239B2, “Method for inhibiting growth of cancer cells” (Pain Therapeutics, Inc., priority 2013, dated 2019).
Like-named read-outs stand apart in the source and are kept apart here.

Assays:
[1] = target: FLNA pentapeptide of SEQ ID NO: 1 (Bn-VAKGL) (Homo sapiens, UniProt P21333); assay: FITC-NLX-based FLNA screening assay (inhibition of FITC-naloxone binding to Bn-VAKGL on streptavidin plates); conditions: for inhibition at 0.01 µM / inhibition at 0.1 µM / inhibition at 1 µM / Percent Binding Inhibition: 10 nM FITC-NLX
mu opiate receptor (MOR) = assay: MOR agonist activity using [35S]GTPγS binding assay in striatal membranes; assay type: biochemical; conditions: for % DAMGO (0.1 μM) / % DAMGO (1 μM): relative to DAMGO; for % DAMGO + BFNA: 1 μM compound + β-FNA, relative to DAMGO + BFNA
Protocol: To assess the mu opiate receptor (MOR) agonist activity of positive compounds from the FLNA screening, compounds were tested in a [^35S]GTPγS binding assay using striatal membranes. […] This assay measures a functional consequence of receptor occupancy at one of the earliest receptor-mediated events. The assay permits traditional pharmacological parameters of potency, efficacy and antagonist affinity, with the advantage that agonist measures are not subjected to amplification or other modulation that may occur when analyzing parameters further downstream of the receptor.
Thus, striatal tissue was homogenized in 10 volumes of ice cold 25 mM HEPES buffer, pH 7.4, which contained 1 mM EGTA, 100 mM sucrose, 50 μg/ml leupeptin, 0.04 mM PMSF, 2 μg/ml soybean trypsin inhibitor and 0.2% 2-mercaptoethanol. The homogenates were centrifuged at 800×g for 5 minutes and the supernatants were centrifuged at 49,000×g for 20 minutes. The resulting pellets were suspended in 10 volume of reaction buffer, which contained 25 mM HEPES, pH 7.5, 100 mM NaCl, 50 μg/ml leupeptin, 2 μg/ml soybean trypsin inhibitor, 0.04 mM PMSF and 0.02% […].
The resultant striatal membrane preparation (200 μg) was admixed and maintained (incubated) at 30° C. for 5 minutes in reaction buffer as above that additionally contained 1 mM MgCl2 and 0.5 nM [^35S]GTPγS (0.1 μCi/assay, PerkinElmer Life and Analytical Sciences) in a total volume of 250 μl and continued for 5 minutes in the absence or presence of 0.1-10 μM of an assayed compound of interest. The reaction was terminated by dilution with 750 μl of ice-cold reaction buffer that contained 20 mM MgCl2 and 1 mM EGTA and immediate centrifugation at 16,000×g for 5 minutes.
The resulting pellet was solubilized by sonicating for 10 seconds in 0.5 ml of immunoprecipitation buffer containing 0.5% digitonin, 0.2% sodium cholate and 0.5% NP-40. Normal rabbit serum (1 μl) was added to 1 ml of lysate and incubated at 25° C. for 30 minutes. Nonspecific immune complexes were removed by incubation with 25 μl of protein A/G-conjugated agarose beads at 25° C. for 30 minutes followed by centrifugation at 5,000×g at 4° C. for 5 minutes. The supernatant was divided and separately incubated at 25° C. for 30 minutes with antibodies raised against Gαo proteins (1:1,000 dilutions).
The immunocomplexes so formed were collected by incubation at 25° C. for 30 minutes with 40 μl of agarose-conjugated protein A/G beads and centrifugation at 5,000×g at 4° C. for 5 minutes. The pellet was washed and suspended in buffer containing 50 mM Tris-HCl, pH 8.0, and 1% NP-40. The radioactivity in the suspension was determined by liquid scintillation spectrometry.

[2] = FLNA-binding compound 0.01 μM, read-out: Percent Binding Inhibition
[3] = FLNA-binding compound 0.1 μM, read-out: Percent Binding Inhibition
[4] = FLNA-binding compound 1 μM, read-out: Percent Binding Inhibition
[5] = Series C-1, 0.1 μM compound, [35S]GTPγS binding to Gαo, striatal membranes
[6] = Series C-1, 1 μM compound + 1 μM β-FNA
[7] = Series C-1, 1 μM compound, [35S]GTPγS binding to Gαo, striatal membranes
[8] = Series C-2, 0.1 μM compound, [35S]GTPγS binding to Gαo, striatal membranes
[9] = Series C-2, 1 μM compound + 1 μM β-FNA
[10] = Series C-2, 1 μM compound, [35S]GTPγS binding to Gαo, striatal membranes

In the case of CC(=O)c1ccc(S(=O)(=O)N2CCC3(CC2)NCCO3)cc1 [Compound C0055], the inhibition at 0.01 µM [1, 2] is reported as 29%, the inhibition at 0.1 µM [1, 3] is reported as 34.9% and the inhibition at 1 µM [1, 4] is reported as 39.5%.
With CC(=O)c1ccc(S(=O)(=O)N2CCC3(CC2)NCC(=O)N3Cc2ccccc2)cc1 [Compound C0082M] the “% DAMGO (0.1 μM)” value (mu opiate receptor (MOR); Series C-1, 0.1 μM compound) was 113.7%, the “Concentration of FLNA-Binding Compound as Agonist 0.1 μM” value (“Concentration … as Agonist 0.1 μM” below) (mu opiate receptor (MOR); [5]) was 228.1% and the “Concentration of FLNA-Binding Compound as Agonist 1 μM + BFNA” value (shortened to “Concentration … as Agonist 1 μM + BFNA”) (mu opiate receptor (MOR); [6]) was 97.6%. The “% DAMGO + BFNA” value (mu opiate receptor (MOR); Series C-1) was 181.1%, the “% DAMGO (1 μM)” value (mu opiate receptor (MOR); Series C-1, 1 μM compound) was 107.8% and the “Concentration of FLNA-Binding Compound as Agonist 1 μM” value (mu opiate receptor (MOR); [7]) was 338.4%.
For O=C1CN(Cc2ccccc2)C2(CCN(S(=O)(=O)c3cc(Cl)cc(Cl)c3O)CC2)N1 [Compound C0138M], the “% DAMGO (0.1 μM)” value (mu opiate receptor (MOR); Series C-1, 0.1 μM compound) was 86.3%, the “Concentration … as Agonist 0.1 μM” value (mu opiate receptor (MOR); [5]) was 126.9% and the “Concentration … as Agonist 1 μM + BFNA” value (mu opiate receptor (MOR); [6]) was 51.5%. For the same compound, the “% DAMGO + BFNA” value (mu opiate receptor (MOR); Series C-1) was 131.0%, the “% DAMGO (1 μM)” value (mu opiate receptor (MOR); Series C-1, 1 μM compound) was 90.9% and the “Concentration of FLNA-Binding Compound as Agonist 1 μM” value (mu opiate receptor (MOR); [7]) was 183.9%.
With COc1ccc(OCC(O)CN2CCc3ccccc32)cc1 (centres unmarked) [Compound A0069] the “Percent Binding Inhibition” value ([1]; FLNA-binding compound 0.01 μM) was 32.0%, the “Percent Binding Inhibition” value ([1]; FLNA-binding compound 0.1 μM) was 40.4% and the “Percent Binding Inhibition” value ([1]; FLNA-binding compound 1 μM) was 46.1%.
With COc1ccc(S(=O)(=O)N2CCOC23CCCNC3)cc1 (centres unmarked) [Compound C0145M-3] the “% DAMGO (0.1 μM)” value (mu opiate receptor (MOR); Series C-2, 0.1 μM compound) was 112.2%, the “MOR agonist activity, percent [35S]GTPγS binding at the stated compound concentration” value (from here on “MOR agonist activity, percent”) (mu opiate receptor (MOR); [8]) was 193.0% and the “MOR agonist activity, percent” value (mu opiate receptor (MOR); [9]) was 87.0%. For the same compound, the “% DAMGO + BFNA” value (mu opiate receptor (MOR); Series C-2) was 95.3%, the “% DAMGO (1 μM)” value (mu opiate receptor (MOR); Series C-2, 1 μM compound) was 88.7% and the “MOR agonist activity, percent” value (mu opiate receptor (MOR); [10]) was 289.2%.
In the case of C[C@@H](NC(=O)[C@@H](N)Cc1ccc(O)cc1)C(=O)NCC(=O)N(C)[C@@H](Cc1ccccc1)C(=O)NCCO [DAMGO, [D-Ala2, N-MePhe4, Gly-ol]-enkephalin, reference compound], the “MOR agonist activity, FLNA-Binding Compound as Agonist 0.1 μM (preliminary study)” value (mu opiate receptor (MOR); 0.1 μM, average of two runs) is reported as 144.7%, the “MOR agonist activity, FLNA-Binding Compound as Agonist 1 μM + βNFA (preliminary study)” value (mu opiate receptor (MOR); 1 μM + βNFA, average of two runs) is reported as 56.8% and the “MOR agonist activity, FLNA-Binding Compound as Agonist 1 μM (preliminary study)” value (mu opiate receptor (MOR); 1 μM, average of two runs) is reported as 233.4%. For the same compound, the “% DAMGO (0.1 μM)” value (mu opiate receptor (MOR); Series C-1, 0.1 μM compound) was 100%, the “Concentration … as Agonist 0.1 μM” value (mu opiate receptor (MOR); [5]) was 168.5% and the “Concentration … as Agonist 1 μM + BFNA” value (mu opiate receptor (MOR); [6]) was 53.2%. For the same compound, the “% DAMGO + BFNA” value (mu opiate receptor (MOR); Series C-1) was 100%, the “% DAMGO (1 μM)” value (mu opiate receptor (MOR); Series C-1, 1 μM compound) was 100% and the “Concentration of FLNA-Binding Compound as Agonist 1 μM” value (mu opiate receptor (MOR); [7]) was 266.1%. For the same compound, the “% DAMGO (0.1 μM)” value (mu opiate receptor (MOR); Series C-2, 0.1 μM compound) was 100%, the “Concentration … as Agonist 0.1 μM” value (mu opiate receptor (MOR); [8]) was 168.5% and the “Concentration … as Agonist 1 μM + BFNA” value (mu opiate receptor (MOR); [9]) was 53.2%. For the same compound, the “% DAMGO + BFNA” value (mu opiate receptor (MOR); Series C-2) was 100%, the “% DAMGO (1 μM)” value (mu opiate receptor (MOR); Series C-2, 1 μM compound) was 100% and the “Concentration of FLNA-Binding Compound as Agonist 1 μM” value (mu opiate receptor (MOR); [10]) was 266.1%.
O=C1CNC2(CCN(CC3CC3)CC2)N1 [Compound C0123M] was tested, and the inhibition at 0.01 µM [1, 2] was 51.9%, the inhibition at 0.1 µM [1, 3] was 60.5% and the inhibition at 1 µM [1, 4] was 62.9%.
With C=CCN1CC[C@]23c4c5ccc(O)c4O[C@H]2C(=O)CC[C@@]3(O)[C@H]1C5 [NLX, naloxone, reference compound] the “Inhibition of 10 nM FITC-conjugated NLX binding to biotinylated FLNA pentapeptide (FIG. 28)” value ([1]; 1 μM) was “inhibit well”.
COc1c2c(cc3c1C(CC(=O)CCc1ccccc1)[N+](C)(C)CC3)OCO2 (centres unmarked) [Compound B0015] was tested, and the inhibition at 0.01 µM ([1]; read-out: Percent Binding Inhibition, FLNA-binding compound 0.01 μM) was 30.4%, the inhibition at 0.1 µM ([1]; read-out: Percent Binding Inhibition, FLNA-binding compound 0.1 μM) was 35.3% and the inhibition at 1 µM ([1]; read-out: Percent Binding Inhibition, FLNA-binding compound 1 μM) was 42.3%.
COc1ccc2c3c1O[C@H]1C(=O)CC[C@@]4(O)[C@@H](C2)N(C)CC[C@]314 [oxycodone, reference compound] was tested, and the “Inhibition of 10 nM FITC-conjugated NLX binding to biotinylated FLNA pentapeptide (FIG. 28)” value ([1]; 10 μM) was “minimal binding inhibition”.
